# In US20130022558A1, “Methods For Imrproving the Appearance of Hyperpigmented Spot(s) and Skin Tone” (priority 2011, published 2013):
# Tested on: hyperpigmented spots on facial skin
# Experiment: In vivo testing for hyperpigmented spot reduction (melanin Spot Area Fraction, split face, image analysis)
# Set-up: species or system human subjects
# Details: baseline to Week 8, Beijing, approx. January 21 to March 21; compared to the vehicle
# Text: The 270 subjects were screened according to inclusion/exclusion criteria which included the following:
# Is willing to refrain from sun exposure by using supplied UV lotion and physical UV blocks, such as a hat, to avoid facial sunburn, tanning or wind burn.
# • 1. […] Two hundred and seventy subjects were recruited for the study.
structure (smiles),measurement,value
"NC(=O)c1cccnc1 [naicinamide, niacinamide]","effect on seasonal skin darkening, in words",mitigated the effects of seasonal skin darkening
